Legend:
ACAT2 [1] = molecular target: T1, ACAT2 (Homo sapiens (Human), UniProt O75908); test: Inhibitory effect on ACAT2 activity, NBD22-fluorescent labeled sterol method in intact HepG2 cells; assay type: cell-based; conditions: for IC50: NBD22-fluorescent labeled sterol, 6 hours incubation; for inhibition rate % on ACAT2 activity: relative inhibition rate with Pyripyropene A (0.2 μM) as the 100% inhibition control
Experimental: An inhibition curve was plotted based on that different concentrations of compounds would cause the fluorescence intensity to change by inhibiting the synthesis of the ester containing NBD22-fluorescent labeled sterol, thereby IC50 was calculated.
HepG2 cells were cultured in a 96-well plate at a starting density of 1.5×10^4 cells per well for 24 hours. After the cholesterol mixture was well mixed, the cells were cultured for another 24 hours. Then NBD22-fluorescent labeled sterol at a final concentration of 0.5 μg/ml, and compounds at a final concentration gradient of 0, 0.008, 0.04, 0.2, 1 and 5 μM were added. Three wells were set for each concentration. After incubating for 6 hours, the fluorescence intensity was measured using a fluorescence analyzer (E488, A535). The fluorescence intensity values were plotted against different concentrations of the compounds and IC50 was obtained.

ACAT2 [2] = molecular target: T1, ACAT2; test: Cholesterol oxidase method for ACAT activity in HepG2 cells, ACAT2; assay type: cell-based; conditions: 10 μg/ml cholesterol, 9 hours
Experimental: HepG2 cells were used for testing the inhibitory effect of compounds at different concentrations on ACAT1 or ACAT2 activity, thereby obtaining IC50 to calculate SI(ACAT1-IC50/ACAT2-IC50).
HepG2 cells were cultured in a 6-well plate at a starting density of 4×10^5 cells per well for 24 hours, then the medium was replaced and 10 μg/ml of cholesterol and the compounds at different concentrations were added. The cells were cultured for another 9 hours and cholesterol amounts of the cells were measured with Cholesterol Assay kit.

T1 sequence (O75908 whole entry): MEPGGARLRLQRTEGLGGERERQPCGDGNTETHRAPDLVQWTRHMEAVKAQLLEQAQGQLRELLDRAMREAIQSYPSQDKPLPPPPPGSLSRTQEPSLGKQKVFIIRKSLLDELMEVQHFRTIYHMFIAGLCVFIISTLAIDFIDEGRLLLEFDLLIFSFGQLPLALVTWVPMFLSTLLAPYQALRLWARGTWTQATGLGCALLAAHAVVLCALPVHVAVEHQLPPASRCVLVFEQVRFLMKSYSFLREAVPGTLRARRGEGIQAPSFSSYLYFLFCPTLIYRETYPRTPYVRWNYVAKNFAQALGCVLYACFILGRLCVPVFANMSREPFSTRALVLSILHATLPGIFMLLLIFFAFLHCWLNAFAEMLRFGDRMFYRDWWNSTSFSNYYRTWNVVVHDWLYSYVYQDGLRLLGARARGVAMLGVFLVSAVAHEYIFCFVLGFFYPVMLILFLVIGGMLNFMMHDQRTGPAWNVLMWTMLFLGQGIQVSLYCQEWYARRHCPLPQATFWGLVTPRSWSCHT

inhibition rate % on ACAT2 activity (ACAT2 [1])	Compound	IC50 (ACAT2 [1])	IC50 (ACAT2 [2])
104%	CC(=O)OCC(COC(C)=O)[C@@H]1C[C@H](OC(C)=O)[C@@]2(C)Oc3cc(-c4cccnc4)oc(=O)c3C(=O)[C@@H]2C1 [Compound 2]		
90%	CC(=O)OCC(C)(OC(C)=O)[C@@H]1C[C@H](OC(C)=O)[C@@]2(C)Oc3cc(-c4cccnc4)oc(=O)c3C(=O)[C@@H]2C1 (stereo partly shown) [Compound 3]		
90%	CC(=O)OCC(COC(C)=O)[C@@H]1C[C@H](OC(C)=O)[C@@]2(C)Oc3cc(-c4cccnc4)oc(=O)c3[C@@H](O)[C@@H]2C1 [Compound 6]		

Further lines, the compound ahead of its results:

Compound	inhibition rate % on ACAT2 activity (ACAT2 [1])	IC50 (ACAT2 [1])	IC50 (ACAT2 [2])
CC(=O)OCC(C)(OC(C)=O)[C@H]1CC2[C@@H](O)c3c(cc(-c4cccnc4)oc3=O)O[C@]2(C)[C@@H](OC(C)=O)C1 (stereo in doubt) [Compound 16]		245 nM	
CC(=O)OCC(C)(OC(C)=O)[C@@H]1C[C@H](OC(C)=O)[C@@]2(C)Oc3cc(-c4cccnc4)oc(=O)c3[C@@H](O)[C@@H]2C1 (stereo partly shown) [Compound 7]		152 nM	147 nM
CC(=O)OCC(C)(OC(C)=O)[C@@H]1C[C@H](OC(=O)c2ccc(C#N)cc2)[C@@]2(C)Oc3cc(-c4cccnc4)oc(=O)c3[C@@H](OC(C)=O)[C@@H]2C1 (stereo partly shown) [Compound 8]		86 nM	61 nM
CC(O)(COC(=O)c1ccc(C#N)cc1)[C@@H]1C[C@H](OC(=O)c2ccc(C#N)cc2)[C@@]2(C)Oc3cc(-c4cccnc4)oc(=O)c3C(=O)[C@@H]2C1 (stereo partly shown) [Compound 13]		23 nM	12 nM
CC(O)(COC(=O)c1ccc(C#N)cc1)[C@@H]1C[C@H](O)[C@@]2(C)Oc3cc(-c4cccnc4)oc(=O)c3C(=O)[C@@H]2C1 (stereo partly shown) [Compound 14]		103 nM	129 nM
CC(=O)OCC(C)(OC(C)=O)[C@@H]1C[C@H](OC(C)=O)[C@@]2(C)Oc3cc(-c4cccnc4)oc(=O)c3[C@@H](O)[C@@H]2C1 (stereo partly shown) [Compound 15]		831 nM	
CC(=O)OC[C@](C)(OC(C)=O)[C@@H]1C[C@@H]2[C@@H](O)c3c(cc(-c4cccnc4)oc3=O)O[C@@]2(C)[C@H](OC(C)=O)C1 [Compound 21]		78 nM	55 nM
CC(=O)OC[C@](C)(OC(C)=O)[C@H]1C[C@@H](OC(C)=O)[C@]2(C)Oc3cc(-c4cccnc4)oc(=O)c3[C@@H](O)[C@@H]2C1 [Compound 22]		86 nM	90 nM
CC(=O)OC[C@](C)(OC(C)=O)[C@@H]1C[C@@H]2[C@H](O)c3c(cc(-c4cccnc4)oc3=O)O[C@@]2(C)[C@H](OC(C)=O)C1 [Compound 26]		433 nM	
CC(=O)OC[C@](C)(O)[C@H]1C[C@@H](O)[C@]2(C)Oc3cc(-c4cccnc4)oc(=O)c3[C@H](O)[C@H]2C1 [Compound 29]		81 nM	
